Experiments:
MMP-9 = MMP-9 (Homo sapiens, UniProt P14780); assay: K(obs) of individual phage substrates (set of 1369); format: biochemical; details: MMP9
MMP-2 [1] = target: T1, MMP-2 (Homo sapiens, UniProt P08253); assay: as above; format: biochemical; details: MMP2
T1 sequence (P08253 110-660): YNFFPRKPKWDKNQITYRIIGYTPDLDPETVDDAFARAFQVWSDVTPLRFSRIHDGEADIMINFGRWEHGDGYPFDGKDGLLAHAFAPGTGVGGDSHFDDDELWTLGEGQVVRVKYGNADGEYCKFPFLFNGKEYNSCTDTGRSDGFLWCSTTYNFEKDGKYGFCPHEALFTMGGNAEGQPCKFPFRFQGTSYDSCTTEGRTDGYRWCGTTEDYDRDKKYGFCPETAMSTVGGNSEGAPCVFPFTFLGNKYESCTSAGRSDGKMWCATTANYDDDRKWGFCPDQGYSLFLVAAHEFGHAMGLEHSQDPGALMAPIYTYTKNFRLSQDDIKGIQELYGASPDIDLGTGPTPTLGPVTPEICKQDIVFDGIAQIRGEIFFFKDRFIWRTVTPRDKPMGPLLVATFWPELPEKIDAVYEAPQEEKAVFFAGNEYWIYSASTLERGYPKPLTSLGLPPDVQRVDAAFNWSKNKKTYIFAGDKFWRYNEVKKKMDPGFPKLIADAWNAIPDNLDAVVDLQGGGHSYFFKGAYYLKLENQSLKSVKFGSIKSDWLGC

MMP-2 [2] = assay: Substrate phage display with NGS: relative probability (RP) of P3-P1' tetramer clusters; format: biochemical, human; details: MMP2;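 further: ratio of tetramer probability after protease selection to that in naive phage library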
[3] = individual phage substrate of the set of 1369 peptides, dash in the sequence marks the cleavage position
[4] = individual phage substrate of the set of 1369 peptides, cleavage position marked by '-'
[5] = RP of the P3-P1' tetramer contained in the substrate
[6] = individual phage substrates, set of 1369 peptides, hyphen in sequence marks cleavage position
[7] = individual phage substrates, set of 1369 peptides, cleavage position marked by hyphen in sequence
[8] = RP of the P3-P1' tetramer contained in the substrate (substrate phage display with NGS)

Chain of MMP-9 (P14780 94-707): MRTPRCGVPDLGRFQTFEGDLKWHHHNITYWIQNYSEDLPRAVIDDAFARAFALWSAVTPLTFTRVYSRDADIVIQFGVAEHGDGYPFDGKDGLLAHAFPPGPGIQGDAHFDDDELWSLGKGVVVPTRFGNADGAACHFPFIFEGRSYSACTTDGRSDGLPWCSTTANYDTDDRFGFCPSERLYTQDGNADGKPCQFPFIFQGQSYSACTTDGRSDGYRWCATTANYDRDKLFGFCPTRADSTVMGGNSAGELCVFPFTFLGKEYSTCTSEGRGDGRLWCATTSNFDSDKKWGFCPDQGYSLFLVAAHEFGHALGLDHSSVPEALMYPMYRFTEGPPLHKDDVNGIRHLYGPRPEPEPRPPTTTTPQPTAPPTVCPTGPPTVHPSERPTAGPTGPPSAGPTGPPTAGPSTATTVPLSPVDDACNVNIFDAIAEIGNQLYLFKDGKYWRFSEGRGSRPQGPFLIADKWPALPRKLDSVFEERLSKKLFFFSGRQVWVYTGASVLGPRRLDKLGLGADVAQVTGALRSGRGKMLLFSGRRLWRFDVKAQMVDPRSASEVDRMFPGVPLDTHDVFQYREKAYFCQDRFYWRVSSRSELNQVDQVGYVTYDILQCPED

Substance	Kobs (MMP-9; [3]) [M⁻¹ s⁻¹]	Kobs (MMP-2 [1]; [4]) [M⁻¹ s⁻¹]	relative probability (RP) (MMP-2 [2]; [5])	Kobs (MMP-9; [6]) [M⁻¹ s⁻¹]	Kobs (MMP-2 [1]; [7]) [M⁻¹ s⁻¹]	relative probability (RP) (MMP-2 [2]; [8])
GRARW-LMTAS	3079.62	1561.44	19.0362			
GRASH-LMTAS				726.013	4470.66	19.8208
GRGAN-LKTAS				951.362	1816.46	13.1428
GRIYE-LWTAS				1373.05	585.336	0.2382
GRLAS-LTASG				0	12792.1	31.1996
GRLGN-LWTAS	0	5667.28	33.3542			
GRLRN-LVTAS	1925.41	5461.43	27.1336			
GRMLH-LRTAS	836.403	451.441	8.417			
GRPAD-LRTAS	12792.1	12792.1	30.0217			
GRPRG-LTTAS	12792.1	12792.1	35.2511			
GRPRS-LTASG	10866.7	12792.1	33.3704			
GRVAY-LSTAS	56.119	8941.32	26.5348			
GRVEL-LYTAS				0	0	0
GRVYD-LKTAS				2761.81	585.336	1.244
GSAVG-LRTAS	5667.28	12792.1	28.9998			
GSFRG-LRTAS				451.441	874.197	7.475

Substance	Kobs (MMP-9; [3]) [M⁻¹ s⁻¹]	Kobs (MMP-2 [1]; [4]) [M⁻¹ s⁻¹]	relative probability (RP) (MMP-2 [2]; [5])	Kobs (MMP-9; [6]) [M⁻¹ s⁻¹]	Kobs (MMP-2 [1]; [7]) [M⁻¹ s⁻¹]	relative probability (RP) (MMP-2 [2]; [8])
GSGAA-LTMPT				84.609	836.403	15.7207
GSGAH-LQLST	292.668	171.876	8.464			
GSGAS-LQMLT				84.609	3253.29	9.538
GSGFS-LRTWT				0	0	0.09752
GSGQH-LRKST				0	171.876	1.164
GSGQH-LRVHT				0	113.394	1.164
GSGRA-MYGTT	2476.66	1513.13	2.5449			
GSGRH-LIKVT				27.918	386.839	3.598
GSGRN-LRLQT	113.394	551.253	8.812			
GSGWA-LKKVT				0	0	0.09159
GSGYH-LRHTT	0	231.616	0.08149			
GSGYS-LIALT				142.481	142.481	0.04707
GSHSN-LMTAS				56.119	12792.1	27.7336
GSLAH-LTASG	0	12792.1	32.813			
GSMNS-LRTAS	874.197	3741.87	18.7113			
GSPAS-LRTAS	12792.1	12792.1	36.4285			

Source: PMC7932537, “Quantitative profiling of protease specificity” (PLoS Computational Biology, 2021)
